Experimental data: ChEMBL document CHEMBL1201862, “PubChem BioAssay data set” (2004)
Activity calls are given as the source filed them.

Legend:
[1] = target: Sphingosine 1-phosphate receptor 2 (Homo sapiens, UniProt O95136); test: Dose Response Cell Based Assay for Agonists of the S1P2 Receptor of Purchased Analogues. [Related pubchem assays: 729, 843, 854, 736 ]; assay type: functional
[2] = target: NADPH oxidase 1 (Homo sapiens, UniProt Q9Y5S8); assay type: functional, cell-based;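 also: Cell-based assay with luminescence read-out, IC50 derived from inhibitor dose-response curves; intracellular ROS from endogenous NOX1 in intact HT29 colon cancer cells; potency of inhibitors that lower the ROS luminescence signal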
[3] = target: T1, E3 ubiquitin-protein ligase XIAP (Homo sapiens, UniProt P98170); test: Counter Screen using XIAP-Bir3 for Chemical Antagonists of Bir1/2 domains of IAP-family anti-apoptotic proteins. [Related pubchem assays (depositor defined):AID1018, AID1449, AID1514, AID1638, AID1749, AID1750, AID488957, AID488963]
[4] = target: T1, E3 ubiquitin-protein ligase XIAP; test: small molecules displacing peptide from XIAP – biochemical, IAP family, fluorescence polarization (AID 1018); assay type: functional
[5] = target: T2, Leucine aminopeptidase (Plasmodium falciparum 3D7, UniProt Q8IL11); test: P. falciparum M17LAP inhibitors, primary screen, biochemical, fluorogenic H-Leu-NHMec substrate, 1536-well (AID 1619); assay type: functional
T2 sequence (Q8IL11 whole entry): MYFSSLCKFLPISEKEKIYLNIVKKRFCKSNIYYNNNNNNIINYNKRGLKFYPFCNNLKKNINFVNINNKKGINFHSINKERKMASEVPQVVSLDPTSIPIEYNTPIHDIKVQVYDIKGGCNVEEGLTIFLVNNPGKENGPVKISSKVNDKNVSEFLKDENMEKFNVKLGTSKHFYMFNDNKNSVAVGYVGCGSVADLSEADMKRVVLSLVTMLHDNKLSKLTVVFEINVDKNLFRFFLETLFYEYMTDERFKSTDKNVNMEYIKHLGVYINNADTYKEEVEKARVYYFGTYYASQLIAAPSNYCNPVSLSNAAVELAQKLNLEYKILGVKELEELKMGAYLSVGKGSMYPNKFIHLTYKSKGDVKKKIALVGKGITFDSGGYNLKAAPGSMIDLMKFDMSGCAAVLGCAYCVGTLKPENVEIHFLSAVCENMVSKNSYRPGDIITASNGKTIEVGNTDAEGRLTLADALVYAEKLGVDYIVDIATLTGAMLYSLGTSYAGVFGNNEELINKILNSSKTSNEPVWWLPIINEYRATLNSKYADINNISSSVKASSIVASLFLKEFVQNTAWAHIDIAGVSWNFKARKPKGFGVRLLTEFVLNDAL

[6] = target: T3, Aspartyl aminopeptidase (Plasmodium falciparum 3D7, UniProt Q8I2J3); test: Counterscreen for inhibitors of M1 and M17 aminopeptidases: QFRET-based biochemical high throughput dose response assay for inhibitors of the Plasmodium falciparum M18 Aspartyl Aminopeptidase (PFM18AAP). [Related PubChem assays: 1619 (Screening assay (M17LAP inhibitors).), 1445 (Screening assay (M1AAP inhibitors).)]
T3 sequence (Q8I2J3 whole entry): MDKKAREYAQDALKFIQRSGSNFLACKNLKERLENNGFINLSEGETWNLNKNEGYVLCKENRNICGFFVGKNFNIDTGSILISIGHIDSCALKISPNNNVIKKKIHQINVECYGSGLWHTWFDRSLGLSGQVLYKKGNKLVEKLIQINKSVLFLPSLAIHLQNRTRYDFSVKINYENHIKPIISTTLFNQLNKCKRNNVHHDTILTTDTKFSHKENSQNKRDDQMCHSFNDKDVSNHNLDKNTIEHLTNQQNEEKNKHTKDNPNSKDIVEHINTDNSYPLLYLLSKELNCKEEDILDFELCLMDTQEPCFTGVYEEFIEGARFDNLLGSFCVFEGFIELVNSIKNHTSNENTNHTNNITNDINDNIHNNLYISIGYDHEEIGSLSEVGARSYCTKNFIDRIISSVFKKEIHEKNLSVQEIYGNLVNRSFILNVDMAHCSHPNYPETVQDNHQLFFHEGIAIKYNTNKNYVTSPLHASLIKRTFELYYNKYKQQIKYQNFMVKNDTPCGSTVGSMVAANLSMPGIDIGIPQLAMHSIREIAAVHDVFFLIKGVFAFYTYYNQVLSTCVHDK

[7] = target: Procathepsin L (Homo sapiens, UniProt P07711); test: CTSL1 protease inhibition – biochemical, QFRET, 1536-well, counter-screen for M1/M17 aminopeptidase inhibitor project, dose response (AID 2214)
[8] = target: T4, Replicative DNA helicase DnaB (Mycobacterium tuberculosis, UniProt P9WMR3); test: DnaB intein splicing inhibitors, dose response, biochemical, cell-free fluorescence (AID 449749); assay type: functional
T4 sequence (P9WMR3 whole entry): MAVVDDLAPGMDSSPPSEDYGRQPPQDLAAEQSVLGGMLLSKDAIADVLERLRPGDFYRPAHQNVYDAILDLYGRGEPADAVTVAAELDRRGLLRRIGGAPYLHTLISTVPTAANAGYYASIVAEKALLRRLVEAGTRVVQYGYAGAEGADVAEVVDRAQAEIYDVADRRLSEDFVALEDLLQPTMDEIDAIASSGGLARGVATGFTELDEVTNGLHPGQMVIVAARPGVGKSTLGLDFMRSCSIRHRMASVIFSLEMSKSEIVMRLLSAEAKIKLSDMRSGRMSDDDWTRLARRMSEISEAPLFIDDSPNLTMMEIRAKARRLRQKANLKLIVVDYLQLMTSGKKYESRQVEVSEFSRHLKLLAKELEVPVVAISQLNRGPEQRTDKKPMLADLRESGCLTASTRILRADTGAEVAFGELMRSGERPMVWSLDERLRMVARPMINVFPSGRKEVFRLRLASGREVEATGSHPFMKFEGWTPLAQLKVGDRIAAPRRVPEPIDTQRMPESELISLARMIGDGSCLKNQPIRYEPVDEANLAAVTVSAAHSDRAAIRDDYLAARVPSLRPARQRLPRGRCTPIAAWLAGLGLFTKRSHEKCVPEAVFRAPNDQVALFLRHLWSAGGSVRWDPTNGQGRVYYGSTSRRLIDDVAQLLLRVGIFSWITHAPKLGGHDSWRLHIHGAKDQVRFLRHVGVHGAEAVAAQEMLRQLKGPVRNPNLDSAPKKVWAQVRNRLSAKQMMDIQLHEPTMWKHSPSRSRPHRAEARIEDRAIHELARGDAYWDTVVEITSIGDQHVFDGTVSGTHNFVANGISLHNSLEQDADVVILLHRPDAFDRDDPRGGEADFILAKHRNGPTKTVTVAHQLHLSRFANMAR

[9] = target: T5, Protein RecA (Mycobacterium tuberculosis, UniProt P9WHJ3); test: Fluorescence Cell-Free Homogeneous Dose Retest to Identify Inhibitors of RecA-Intein Splicing Activity. [Related pubchem assays (depositor defined):AID2097, AID2223, AID489010, AID492950]; assay type: functional
T5 sequence (P9WHJ3 whole entry): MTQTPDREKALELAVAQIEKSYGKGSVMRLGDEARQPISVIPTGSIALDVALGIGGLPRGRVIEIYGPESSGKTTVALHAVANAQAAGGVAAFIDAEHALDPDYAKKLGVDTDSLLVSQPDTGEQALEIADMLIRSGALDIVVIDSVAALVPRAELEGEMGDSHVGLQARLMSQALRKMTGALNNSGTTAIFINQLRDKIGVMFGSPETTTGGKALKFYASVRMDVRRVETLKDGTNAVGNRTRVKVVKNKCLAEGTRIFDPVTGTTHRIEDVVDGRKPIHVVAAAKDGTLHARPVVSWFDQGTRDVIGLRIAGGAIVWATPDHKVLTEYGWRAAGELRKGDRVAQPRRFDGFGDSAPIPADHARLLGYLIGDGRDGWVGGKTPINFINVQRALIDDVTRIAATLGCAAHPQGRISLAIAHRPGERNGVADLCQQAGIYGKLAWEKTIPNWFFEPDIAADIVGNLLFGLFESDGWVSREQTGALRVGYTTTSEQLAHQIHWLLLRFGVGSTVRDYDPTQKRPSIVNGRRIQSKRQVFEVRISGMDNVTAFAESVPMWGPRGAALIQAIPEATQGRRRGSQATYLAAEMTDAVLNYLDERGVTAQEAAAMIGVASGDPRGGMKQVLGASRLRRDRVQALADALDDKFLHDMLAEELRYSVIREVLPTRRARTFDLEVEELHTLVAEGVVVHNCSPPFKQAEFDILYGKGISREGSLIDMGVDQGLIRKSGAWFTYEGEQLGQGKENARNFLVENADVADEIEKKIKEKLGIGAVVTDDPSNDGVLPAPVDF

[10] = Luminescent dose response cell-based high throughput screening assay for inhibitors of the Janus kinase 2 mutant JAK2V617F. [Related pubchem assays: 1446 (Primary screen.), 1521 (Confirmation assay.), 1486 (Counter screen.)]; assay type: functional
[11] = target: T6, Heat shock factor protein 1 (Mus musculus, UniProt P38532); test: decrease of HSF1-responsive luciferase luminescence – cell-based, NIH3T3, dose retest, confirmation (AID 2382); assay type: functional;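 also: NIH3T3 fibroblasts with HSF1-driven luciferase reporter stressed by proteasome inhibitor MG132; luminescence from HSF1-driven luciferase expression after 8 hours of MG132 stress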
T6 sequence (P38532 whole entry): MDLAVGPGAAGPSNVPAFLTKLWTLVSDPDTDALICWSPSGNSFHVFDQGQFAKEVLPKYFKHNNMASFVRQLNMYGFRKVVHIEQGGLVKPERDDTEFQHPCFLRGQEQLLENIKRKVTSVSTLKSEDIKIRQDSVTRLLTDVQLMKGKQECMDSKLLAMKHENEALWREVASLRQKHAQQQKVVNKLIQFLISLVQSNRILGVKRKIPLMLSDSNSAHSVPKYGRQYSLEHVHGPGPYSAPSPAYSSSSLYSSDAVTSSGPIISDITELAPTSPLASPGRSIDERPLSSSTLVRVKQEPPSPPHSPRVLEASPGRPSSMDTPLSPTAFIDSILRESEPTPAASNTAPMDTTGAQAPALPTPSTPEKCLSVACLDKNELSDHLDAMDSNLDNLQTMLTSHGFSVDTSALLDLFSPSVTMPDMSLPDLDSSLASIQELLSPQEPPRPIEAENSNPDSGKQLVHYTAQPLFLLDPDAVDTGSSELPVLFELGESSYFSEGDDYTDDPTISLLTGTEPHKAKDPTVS

[12] = Trypanosoma cruzi growth suppression in host cells – NIH3T3 host cells, beta-gal luminescence, confirmation (AID 2044); assay type: functional, cell-based;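 also: intracellular parasites grown in NIH/3T3 mouse fibroblasts as host cells; luminescent beta-galactosidase reporter signal from transgenic T. cruzi replicating inside host cells; inhibitors lower the luminescence signal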
[13] = NIH3T3 cell viability loss – ATP luminescence, mouse fibroblasts, counter-screen, dose response (AID 2010); assay type: functional, cell-based;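 also: cells exposed to compound for about 90 hours before reading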
[14] = test system: Jurkat; test: blockers of NF-kB activation in T cells – Jurkat, luciferase reporter, luminescence, B- and T-cell, dose response (AID 489004); assay type: functional, cell-based; details: Homo sapiens;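 also: NF-kB luciferase reporter Jurkat cells stimulated with PMA plus ionomycin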
[15] = HEK-293T viability loss, compound-treated – cell-based, uHTS hits, cytotoxicity control for B/T-cell NF-kB inhibitor project, dose response (AID 489019); assay type: functional;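 also: IC50 reflects cytotoxicity as loss of cell viability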
[16] = target: Paired box protein Pax-8 (Homo sapiens, UniProt Q06710); test: PAX8 transcriptional activity inhibition in RMG-I – RMG-I cells, luciferase, cherry-pick, dose response (AID 687027); assay type: functional, cell-based;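 also: luciferase reporter driven by Pax8 target thyroperoxidase promoter measured by SteadyGlo luminescence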
[17] = general cell-killing toxicity readout – plate reader, dry powder samples, cytotoxicity control for PAX8 inhibitor project, dose response (AID 743021); assay type: functional, cell-based
[18] = cells
[19] = Luminescence Cell-Based Dose Response to Identify Activators of 5'UTR Stem-Loop Driven Prion Protein mRNA Translation in H4-C Neuroglioblastoma Cells. [Related pubchem assays: 1829 (Project Summary), 1814 (Primary HTS)]; assay type: functional
[20] = Luminescence Cell-Based Dose Response HTS to Identify Activators of Luciferase Translation or Activity in H4 […] Cells. [Related pubchem assays: 1829 (Project Summary), 1814 (Primary HTS)]; assay type: functional
[21] = test system: H4; test: Luminescence Cell-Based Dose Response HTS to Identify Activators of 5'UTR Stem-Loop Driven Prion Protein mRNA Translation in H4 Neuroglioblastoma Cells. [Related pubchem assays: 1829 (Project Summary), 1814 (Primary HTS)]; assay type: functional; details: Homo sapiens
[22] = Luminescence Cell-Based Dose Response to Identify Activators of Luciferase Translation or Activity in H4-C Neuroglioblastoma Cells. [Related pubchem assays: 1829 (Project Summary), 1814 (Primary HTS)]; assay type: functional
[23] = Luminescence Cell-Based Dose Confirmation to Identify Activators of 5'UTR Stem-Loop Driven Alpha-Synuclein mRNA Translation in H4 Neuroglioblastoma Cells. [Related pubchem assays: 1829 (Project Summary), 1814 (Primary HTS)]; assay type: functional

T1 sequence (P98170 whole entry): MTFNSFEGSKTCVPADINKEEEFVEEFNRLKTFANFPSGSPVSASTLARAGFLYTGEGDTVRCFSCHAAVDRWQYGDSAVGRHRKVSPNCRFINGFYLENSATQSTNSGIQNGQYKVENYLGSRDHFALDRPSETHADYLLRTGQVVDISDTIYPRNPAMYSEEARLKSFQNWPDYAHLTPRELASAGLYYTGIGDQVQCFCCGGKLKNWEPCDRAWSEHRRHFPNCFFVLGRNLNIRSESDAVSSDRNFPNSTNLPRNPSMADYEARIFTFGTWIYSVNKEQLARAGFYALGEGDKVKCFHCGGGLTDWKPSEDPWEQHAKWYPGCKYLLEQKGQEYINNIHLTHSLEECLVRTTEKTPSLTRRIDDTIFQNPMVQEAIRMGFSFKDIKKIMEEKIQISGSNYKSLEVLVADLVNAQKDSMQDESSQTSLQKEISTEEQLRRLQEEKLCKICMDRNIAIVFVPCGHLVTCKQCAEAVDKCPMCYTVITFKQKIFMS
Sequence of Procathepsin L (P07711 whole entry): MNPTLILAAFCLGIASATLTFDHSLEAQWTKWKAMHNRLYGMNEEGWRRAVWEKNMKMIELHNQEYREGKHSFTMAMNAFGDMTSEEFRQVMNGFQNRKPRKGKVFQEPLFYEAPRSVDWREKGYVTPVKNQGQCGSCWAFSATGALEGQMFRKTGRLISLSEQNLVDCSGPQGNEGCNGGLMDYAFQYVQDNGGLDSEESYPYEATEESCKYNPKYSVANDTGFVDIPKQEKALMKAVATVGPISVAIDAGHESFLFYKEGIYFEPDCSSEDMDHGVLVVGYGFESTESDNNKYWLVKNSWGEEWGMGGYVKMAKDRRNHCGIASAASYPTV
Sequence of NADPH oxidase 1 (Q9Y5S8 whole entry): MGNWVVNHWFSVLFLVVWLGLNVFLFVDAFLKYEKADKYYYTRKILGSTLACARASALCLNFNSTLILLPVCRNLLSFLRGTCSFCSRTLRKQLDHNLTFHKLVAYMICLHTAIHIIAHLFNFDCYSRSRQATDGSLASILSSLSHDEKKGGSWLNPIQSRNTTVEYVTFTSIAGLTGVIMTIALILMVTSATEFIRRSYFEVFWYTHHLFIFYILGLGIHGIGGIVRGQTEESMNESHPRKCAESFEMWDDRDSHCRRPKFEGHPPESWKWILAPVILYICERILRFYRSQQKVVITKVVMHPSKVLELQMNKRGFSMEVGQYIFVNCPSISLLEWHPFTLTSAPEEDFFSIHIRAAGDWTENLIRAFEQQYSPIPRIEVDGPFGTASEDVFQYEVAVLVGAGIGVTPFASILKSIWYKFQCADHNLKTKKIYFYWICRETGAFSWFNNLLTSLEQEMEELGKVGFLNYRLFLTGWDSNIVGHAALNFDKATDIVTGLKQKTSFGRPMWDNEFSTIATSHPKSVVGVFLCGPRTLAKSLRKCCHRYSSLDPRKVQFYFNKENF
Sequence of Sphingosine 1-phosphate receptor 2 (O95136 whole entry): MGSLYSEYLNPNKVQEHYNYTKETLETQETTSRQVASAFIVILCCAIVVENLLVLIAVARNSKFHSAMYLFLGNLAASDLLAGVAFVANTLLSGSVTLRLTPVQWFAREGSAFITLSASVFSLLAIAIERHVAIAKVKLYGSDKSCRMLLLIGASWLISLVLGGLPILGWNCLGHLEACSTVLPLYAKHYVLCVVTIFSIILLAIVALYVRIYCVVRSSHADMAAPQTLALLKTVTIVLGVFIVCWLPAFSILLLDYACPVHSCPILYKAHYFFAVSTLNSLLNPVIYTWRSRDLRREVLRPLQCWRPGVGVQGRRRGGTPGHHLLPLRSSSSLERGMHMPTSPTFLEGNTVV
Sequence of Paired box protein Pax-8 (Q06710 whole entry): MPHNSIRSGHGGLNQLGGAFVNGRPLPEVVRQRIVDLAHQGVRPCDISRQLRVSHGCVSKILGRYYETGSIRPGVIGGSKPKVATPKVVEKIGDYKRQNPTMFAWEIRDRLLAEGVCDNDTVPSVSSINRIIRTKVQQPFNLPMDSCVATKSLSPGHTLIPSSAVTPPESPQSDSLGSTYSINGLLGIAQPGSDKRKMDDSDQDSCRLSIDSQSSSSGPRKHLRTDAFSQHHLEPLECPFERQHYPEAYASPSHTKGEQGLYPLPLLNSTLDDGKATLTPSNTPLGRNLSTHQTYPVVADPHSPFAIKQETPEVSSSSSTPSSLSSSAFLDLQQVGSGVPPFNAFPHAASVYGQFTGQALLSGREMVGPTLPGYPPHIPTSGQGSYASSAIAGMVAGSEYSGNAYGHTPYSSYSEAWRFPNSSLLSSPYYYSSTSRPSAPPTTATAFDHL

With `Cc1cc(C(=O)CSc2nnnn2C)c(C)n1Cc1ccccc1` the EC50 [1] was 30 µM (not active).

With `COc1ccccc1OC(=O)c1sc2ccccc2c1Cl` the IC50 [2] was > 17 µM (not active).

With `O=C(NC(=S)NC1CC1)c1cccnc1` the IC50 [3] was > 100 µM (inactive) and the IC50 [4] was > 100 µM (not active).

In the case of `COc1ccc(-c2cc(=O)[nH][nH]2)cc1OC`, the IC50 [5] is reported as 7.86 µM (active), the IC50 [6] is reported as > 73.5 µM (not active) and the IC50 [7] is reported as > 59.6 µM (not active). For the same molecule, the AC50 [8] was 1.01 µM (active) and the EC50 [9] was 0.38 µM (active).

In the case of `O=C(CCl)/N=c1\sccn1Cc1ccc(Cl)cc1Cl`, the IC50 [10] is reported as 235 nM (active), the EC50 [11] is reported as 361 nM (active) and the EC50 [12] is reported as < 100 nM (active). The EC50 [13] was 192 nM (active), the IC50 [14] was < 160 nM (active) and the IC50 [15] was > 80 µM (inactive). The AC50 [8] was 27.2 µM (active), the EC50 [9] was 15.1 µM (active) and the AC50 [16] was 1.36 µM (active). For the same molecule, the AC50 [17] was 2.54 µM (active) and the EC50 [18] was < 4 nM (active).

With `CC1(C)CC(=O)/C(=N/Nc2ccc(Cl)cc2)CO1` the EC50 [19] was 422 nM (active), the EC50 [20] was 207 nM (active) and the EC50 [21] was < 100 nM (active). For the same molecule, the EC50 [22] was 324 nM (active) and the EC50 [23] was 504 nM (active).
